# Where “and” joins values, the source holds several entries; their conditions need not be identical. Equal entries are not always repeated. Numbered stars: 1 amine (or outer) side, 2 acyl side, 3 side chain; on linkers, the order of the positions; unused ones are H or OH. Bridge positions count the residues as written; N and C are the ends. Square brackets hold non-standard residues; d marks the D form. Peptide text beside a SMILES is read from it. I, II: the chains in the order shown. ξ: configuration not given here. Phe(4-tBu) = CC(C)(C)c1ccc(C[C@H](N)C(=O)O)cc1; Diglycolyl = O=C(COCC(=O)[*:2])[*:1]; NMeR = CN[C@@H](CCCNC(=N)N)C(=O)O; β3hE = N[C@@H](CCC(=O)O)CC(=O)O; Thr(3ξ) = CC(O)[C@H](N)C(=O)O; X1 = O=C(c1ccccc1C[*:2])[*:1]; Pen = CC(C)(S)[C@H](N)C(=O)O
# Key:
# α4β7 = target: T1, α4β7 (Homo sapiens, UniProt P13612+P26010); assay: α4β7 internalization / surface expression by flow cytometry; type: cell-based
# T1 construct: endogenous in cells
# Description: Blood samples from human donors were obtained from the Stanford Blood Center (Stanford, Calif.) under an RB-approved research protocol. Blood was drawn into BD Vacutainer sodium heparin blood collection tubes (BD Biosciences, Cat #362753). Peripheral blood mononuclear cells (PBMCs) were isolated from blood using a SepMate-50 tube and LymphoPrep per the manufacturer's protocol. CD4^+ T memory cells were enriched after PBMC isolation, using an EasySep kit (StemCell Technologies) per the manufacturer's protocol.
# After incubation, an aliquot of cells from each reaction was stained for α4β7 expression.
# After incubation, cells were washed extensively to remove excess peptide. For each reaction, an aliquot of cells was stained for α4β7 expression, while a separate aliquot was tested for adhesion to MAdCAM1.
# An aliquot of cells were collected before and 24 h post peptide addition and stained for α4β7 expression. Afterwards, cells were extensively washed to remove excess peptide and incubated in fresh complete culture medium (without MnCl2) for an additional seven days. On day 1, 2, 4, 5, and 7 days after peptide washout, aliquots were stained for α4β7 expression.
# Following peptide incubation, an aliquot of each reaction was stained for surface expression of α4β7 in preparation for flow cytometry. Cells were stained at 4° C. for 30 minutes, washed twice in DPBS containing 0.5% BSA (PBS/BSA), incubated with streptavidin BV421 (diluted 1:1000) at 4° C. for 30 minutes, washed twice in PBS/BSA, and then resuspended in PBS/BSA for analysis. Where relevant, a “fluorescence minus one” (FMO) sample was used as the staining control.
# Samples were analyzed by flow cytometry on a BD (Franklin Lakes, N.J.) FACSVerse flow cytometer equipped with the following lasers: 405 nm (violet), 488 nm (blue), 561 nm (yellow-green), and 640 nm (red). CD4^+ T memory cells were identified as CD4^+, […], CD197^+ lymphocytes. α4β7 expression within CD4^+ T memory cells was identified based on staining with the Vedolizumab BV421 complex; staining was analyzed using BD FACSuite software, version 1.0.5. Where applicable, values were normalized to no-peptide controls and expressed as percentages to permit assessment of changes in the indicated parameter. Data were plotted and analyzed using Prism software (version 7; GraphPad, La Jolla, Calif.).
# [1] = Oral bioavailability in cynomolgus monkeys; conditions: cynomolgus monkey, in vivo
# clinical = conditions: male, human, in vivo; for AUC(0-inf): AUCinf (ng · h/mL); for AUC(0-t): AUCt (ng · h/mL); for AUC: AUCtau (ng · h/mL); for Cmax: Cmax (ng/mL)
# Description: Dose escalation proceeded from 100 mg, 300 mg, 1000 mg, 1400 mg. Subjects in the 300 mg dose cohort received treatment in the fasted state on one occasion and following a high fat meal on a second occasion in a crossover fashion. The high fat meal consisted of two eggs fried in butter, two strips of bacon, two slices of toast with butter, four ounces of hash brown potatoes and 240 ml of whole milk. During Part 1, subjects refrained from food and drink except water for 10 hours before and for four hours after dosing with the exception of subjects in the 300 mg dose cohort during the fed treatment.
# Part 2 was a randomized, placebo-controlled, double-blind multiple ascending dose study in 50 male subjects divided equally into 5 cohorts. […] Doses evaluated in Part 2 included 100 mg, 300 mg and 1000 mg. During Part 2, two cohorts of subjects (100 mg and 300 mg) received food approximately 30 minutes prior to each dose and another two cohorts of subjects (300 mg and 100 mg) refrained from food for 10 hours before and for 1 hour after dosing.
# Study 1: The single and multiple ascending dose phase of the study consisted of sequential dose escalations in 10 subject per dose cohort. […] Dose solutions were formulated in 50 mM phosphate buffer pH 7.4 and were prepared weekly by a qualified pharmacist.
# Blood samples for pharmacokinetics were collected predose and for 48 hours postdose following single doses. In the multiple ascending dose phase, blood samples were obtained on Days 1-3 and 14-16; on Days 8 samples were obtained predose, 4, and 12 hours. On Day 10 of the MAD, subjects were required to collect all urine for the 0-6, 6-12, 12-18, and 18-24 hour intervals postdose and on Day 11 subjects were required to collect fecal samples.
# The drug and internal standard were extracted from the matrix by a protein precipitation procedure. The limit of quantitation was 0.2 ng/mL, 20 ng/mL, and 100 ng/mL in plasma, urine, and feces, respectively. […] Coefficient of determinations for the calibration curves were at least 0.99 for all matrices. The interassay accuracy (% bias) ranged from −2.2% to 1.0% for plasma, −3.8% to 9.0% for urine and −5.0 to 5.2% for feces. Interassay precision (% CV) ranged from 3.7% to 7.7% for plasma, 2.8% to 7.0% for urine, and 1.2% to 5.2% for feces.
# Pharmacokinetic parameters were estimated by noncompartmental methods using Phoenix WinNonlin (Certara, Princeton N.J.). Peak plasma concentration (Cmax) and time to peak plasma concentration (Tmax) were observed values. The elimination rate was estimated from the slope of the least-squares regression on the terminal log-linear phase. Area under the plasma concentration-time curve from time zero to the last quantifiable concentration (AUCt) was estimated by a linear trapezoidal method and was extrapolated to infinity (AUC∞) by dividing the last quantifiable concentration b the elimination rate.
# [2] = Safety and tolerability in healthy volunteers; conditions: for tolerability: single and multiple oral doses
# [3] = Drug exposure in plasma and Peyer's patches after oral dosing
# Description: One hour following dosing, mice were euthanized and whole blood/plasma and Peyer's patches were collected. Peyer's patches were dispersed in 1 mL RPMI medium with 2% FBS without washing step. Whole blood and single cell suspension of Peyer's patches (100 uL out of 1 mL total) were submitted for flow cytometry to determine α4β7 receptor occupancy. % RO=(1−(% positive test sample/% positive median vehicle control))*100. Plasma and Peyer's patches dispersed in single cell suspension (500 uL of 1 mL total) were also analyzed for drug exposure.
# T1 sequence (P13612 34-1032): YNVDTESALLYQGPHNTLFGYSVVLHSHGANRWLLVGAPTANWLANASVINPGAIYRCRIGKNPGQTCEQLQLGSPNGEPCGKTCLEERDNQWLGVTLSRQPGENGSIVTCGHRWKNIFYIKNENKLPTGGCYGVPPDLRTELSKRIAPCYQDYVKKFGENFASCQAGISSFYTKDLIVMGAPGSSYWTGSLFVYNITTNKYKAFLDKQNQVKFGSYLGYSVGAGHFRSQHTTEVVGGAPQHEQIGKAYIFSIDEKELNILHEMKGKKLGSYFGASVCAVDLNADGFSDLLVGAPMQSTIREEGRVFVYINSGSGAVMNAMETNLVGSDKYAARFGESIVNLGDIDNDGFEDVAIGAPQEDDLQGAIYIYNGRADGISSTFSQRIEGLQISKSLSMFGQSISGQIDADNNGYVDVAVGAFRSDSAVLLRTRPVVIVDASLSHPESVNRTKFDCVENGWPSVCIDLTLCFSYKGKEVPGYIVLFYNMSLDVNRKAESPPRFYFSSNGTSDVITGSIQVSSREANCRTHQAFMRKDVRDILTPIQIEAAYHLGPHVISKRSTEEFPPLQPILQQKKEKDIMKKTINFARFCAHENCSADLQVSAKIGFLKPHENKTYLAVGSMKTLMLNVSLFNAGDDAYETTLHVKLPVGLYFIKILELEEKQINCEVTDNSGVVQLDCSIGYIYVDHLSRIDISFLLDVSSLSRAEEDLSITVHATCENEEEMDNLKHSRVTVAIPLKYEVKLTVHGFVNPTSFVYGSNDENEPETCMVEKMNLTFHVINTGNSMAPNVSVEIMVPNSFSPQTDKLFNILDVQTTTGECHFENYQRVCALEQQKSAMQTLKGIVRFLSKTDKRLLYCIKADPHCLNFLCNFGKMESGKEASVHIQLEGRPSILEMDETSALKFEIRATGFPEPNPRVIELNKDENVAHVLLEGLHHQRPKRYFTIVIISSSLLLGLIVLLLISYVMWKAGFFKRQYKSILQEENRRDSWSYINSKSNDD
# T1 sequence (P26010 20-798): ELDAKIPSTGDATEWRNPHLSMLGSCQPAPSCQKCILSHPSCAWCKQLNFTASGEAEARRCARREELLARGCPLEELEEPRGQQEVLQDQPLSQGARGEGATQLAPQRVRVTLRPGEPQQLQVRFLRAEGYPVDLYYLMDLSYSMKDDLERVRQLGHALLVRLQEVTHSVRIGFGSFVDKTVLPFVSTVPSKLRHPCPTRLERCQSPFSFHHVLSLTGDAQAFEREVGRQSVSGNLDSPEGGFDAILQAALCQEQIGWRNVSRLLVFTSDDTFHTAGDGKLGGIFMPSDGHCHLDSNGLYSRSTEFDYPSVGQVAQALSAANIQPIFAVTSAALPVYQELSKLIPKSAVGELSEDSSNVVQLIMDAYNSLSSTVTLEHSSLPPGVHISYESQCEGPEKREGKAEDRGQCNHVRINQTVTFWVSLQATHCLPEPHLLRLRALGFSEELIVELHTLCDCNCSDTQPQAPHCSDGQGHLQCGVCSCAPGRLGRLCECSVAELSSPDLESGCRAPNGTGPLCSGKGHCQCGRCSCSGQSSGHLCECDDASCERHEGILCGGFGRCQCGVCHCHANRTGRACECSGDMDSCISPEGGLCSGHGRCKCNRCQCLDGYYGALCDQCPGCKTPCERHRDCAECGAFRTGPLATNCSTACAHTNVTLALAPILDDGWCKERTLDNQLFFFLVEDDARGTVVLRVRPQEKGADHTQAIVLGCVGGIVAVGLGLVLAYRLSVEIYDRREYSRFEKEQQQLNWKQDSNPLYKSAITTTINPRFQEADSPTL
smiles,measurement,setting,value
"CC(C)C[C@@H]1NC(=O)[C@H](C(C)O)NC(=O)[C@H](CC(=O)O)NC(=O)[C@H](CO)NC(=O)[C@H](CCCNC(=N)N)N(C)C(=O)c2ccccc2CSC(C)(C)[C@@H](C(=O)N[C@@H](Cc2ccc(C(C)(C)C)cc2)C(=O)N[C@@H](CCC(=O)O)CC(=O)N[C@H](CCCCNC(=O)COCC(=O)NCCCC[C@@H](NC(=O)C[C@H](CCC(=O)O)NC(=O)[C@H](Cc2ccc(C(C)(C)C)cc2)NC(=O)[C@H]2NC(=O)[C@H](CC(C)C)NC(=O)[C@H](C(C)O)NC(=O)[C@H](CC(=O)O)NC(=O)[C@H](CO)NC(=O)[C@H](CCCNC(=N)N)N(C)C(=O)c3ccccc3CSC2(C)C)C(=O)O)C(=O)O)NC1=O (stereo partly drawn) [Compound A, ((2-Benzyl)-(N-Me-R)-Ser-Asp-Thr-Leu-Pen-(Phe(4-tBlu))-(β-homo-Glu)-(D-Lys)-OH)2 (SEQ ID NO: 5) and linker-DIG diglycolic acid] (I: [NMeR]SD[Thr(3ξ)]L[Pen][Phe(4-tBu)][β3hE][dK]-OH / II: [NMeR]SD[Thr(3ξ)]L[Pen][Phe(4-tBu)][β3hE][dK]-OH; linker I:9-II:9 via Diglycolyl; linker I:N-I:6, II:N-II:6 via X1)","induced internalization of α4β7, time and concentration dependence","α4β7; CD4+ T memory cells, 10 nM for 0 to 48 h, 0-10 nM for 24 h",time (FIG. 15) and concentration (FIG. 16) dependent
same,Maximal α4β7 expression reduction (%),"α4β7; Donor 1, normalized to no-peptide control",53%
same,Maximal α4β7 expression reduction (%),"α4β7; Donor 2, normalized to no-peptide control",25%
same,Maximal α4β7 expression reduction (%),α4β7; Mean of two donors,39%
same,additional incubation after washout until α4β7 expression recovered to control levels,"α4β7; human PBMCs, 10 nM 24 h then washout",5 days and 4 to 5 days
same,α4β7 expression MFI difference compared to FMO control (4219 MFI),"α4β7; human PBMCs, 10 nM, 24 h",20.6%
same,α4β7 expression as measured by MFI,"α4β7; human PBMCs, 10 nM, 24 h, without MnCl2",5090 MFI
same,bioavailability,[1],< 1%
same,AUC(0-inf),clinical; 100 mg,16.5 ng·h/mL
same,AUC(0-inf),clinical; 300 mg,57.6 ± 23.6 ng·h/mL
same,AUC(0-t),clinical; 450 mg,77.6 ± 37.1 ng·h/mL
same,AUC,clinical; 450 mg,41.5 ± 10.7 ng·h/mL
same,Cmax,clinical; 450 mg,9.96 ng/mL
same,AUC(0-inf),clinical; 900 mg,176 ± 98.5 ng·h/mL
same,AUC(0-t),clinical; 900 mg,159 ± 70.5 ng·h/mL
same,AUC,clinical; 900 mg,159 ± 70.5 ng·h/mL
same,Cmax,clinical; 900 mg,14.2 ng/mL
same,AUC(0-inf),clinical; 1000 mg,151 ± 31.7 ng·h/mL
same,AUC(0-t),clinical; 1000 mg,138 ± 33.7 ng·h/mL
same,Cmax,clinical; 1000 mg,15.3 ± 4.11 ng/mL
same,AUC(0-inf),clinical; 1400 mg,260 ng·h/mL
same,AUC(0-t),clinical; 1400 mg,257 ± 173 ng·h/mL
same,Cmax,clinical; 1400 mg,23.5 ng/mL
same,"maximally tolerated dose, multiple dose (highest dose tested)",[2]; healthy volunteers,1000 mg
same,"maximally tolerated dose, single dose (highest dose tested)",[2]; healthy volunteers,1400 mg
same,subjects reporting AEs,[2]; multiple doses,Thirty
same,total AEs,[2]; multiple doses,68 AEs
same,QTc prolongation,[2]; single and multiple doses,no evidence of QTc prolongation was observed
same,tolerability,[2],generally well tolerated
same,tolerability,[2]; listed as COMPOUND A,safe and well tolerated
same,TEAEs in subjects who received drug,[2]; single ascending dose phase,21 events
same,subjects with TEAEs who received drug,[2]; single ascending dose phase,12 subjects
same,dose-limiting toxicities,"[2]; single doses up to 1400 mg, multiple up to 1000 mg",no dose-limiting toxicities observed
same,concentration in plasma and Peyer's Patches vs dose,[3]; 3 and 30 mg/kg,significant dose-dependent increase
same,concentration in Peyer's Patches compared to plasma,[3]; both dose levels (3 and 30 mg/kg),significantly higher

# Source: patent US20230063321A1, “Methods for Treating Inflammatory Bowel Diseases with alpha4beta7 Integrin Antagonists” (Protagonist Therapeutics, Inc., priority 2020, published 2023)
